From ChEMBL document CHEMBL3102739, “Synthesis and antiproliferative activity of conformationally restricted 1,2,3-triazole analogues of combretastatins in the sea urchin embryo model and against human cancer cell lines” (Bioorg Med Chem, 2014)

What was measured:
Assay type in all cases: functional
K562 = assay: Growth inhibition of human K562 cells after 48 hrs by SRB assay; conditions: K562, 48 h
MDA-MB-231 = assay: Growth inhibition of human MDA-MB-231 cells after 48 hrs by SRB assay; conditions: MDA-MB-231, 48 h
BT-549 = assay: Growth inhibition of human BT549 cells after 48 hrs by SRB assay; conditions: BT-549, 48 h
NCI-H522 = assay: Growth inhibition of human NCI-H522 cells after 48 hrs by SRB assay; conditions: NCI-H522, 48 h
KM12 = assay: Growth inhibition of human KM12 cells after 48 hrs by SRB assay; conditions: KM12, 48 h
MDA-MB-468 = assay: Growth inhibition of human MDA-MB-468 cells after 48 hrs by SRB assay; conditions: MDA-MB-468, 48 h
[1] = Growth inhibition of human Hs578T cells after 48 hrs by SRB assay; conditions: Hs-578T
SNB-75 = assay: Growth inhibition of human SNB75 cells after 48 hrs by SRB assay; conditions: SNB-75, 48 h
SW-620 = assay: Growth inhibition of human SW620 cells after 48 hrs by SRB assay; conditions: SW-620, 48 h
MCF7 = assay: Growth inhibition of human MCF7 cells after 48 hrs by SRB assay; conditions: MCF7, 48 h
SK-MEL-5 = assay: Growth inhibition of human SK-MEL-5 cells after 48 hrs by SRB assay; conditions: SK-MEL-5, 48 h
DU-145 = assay: Growth inhibition of human DU145 cells after 48 hrs by SRB assay; conditions: DU-145, 48 h
SF-295 = assay: Growth inhibition of human SF295 cells after 48 hrs by SRB assay; conditions: SF-295, 48 h
SN12C = assay: Growth inhibition of human SN12C cells after 48 hrs by SRB assay
Malme-3M = assay: Growth inhibition of human MALME-3M cells after 48 hrs by SRB assay
SK-MEL-28 = assay: Growth inhibition of human SK-MEL-28 cells after 48 hrs by SRB assay; conditions: SK-MEL-28, 48 h

Row | Structure (SMILES) | GI50 (K562) [nM] | GI50 (MDA-MB-231) [nM] | GI50 (BT-549) [nM] | GI50 (NCI-H522) [nM] | GI50 (KM12) [nM] | GI50 (MDA-MB-468) [nM] | GI50 [1] [nM] | GI50 (SNB-75) [nM] | GI50 (SW-620) [nM] | GI50 (MCF7) [nM] | GI50 (SK-MEL-5) [nM] | GI50 (DU-145) [nM] | GI50 (SF-295) [nM] | GI50 (SN12C) [nM] | GI50 (Malme-3M) [nM] | GI50 (SK-MEL-28) [nM]
1 | COc1ccc(-c2nn[nH]c2-c2cc(OC)c(OC)c(OC)c2)cc1 | < 10 | < 10 | < 10 | < 10 | < 10 | < 10 | < 10 | < 10 | < 10 | < 10 | < 10 | < 10 | < 10 | < 10 |  | 
2 | COc1ccc(-c2nn[nH]c2-c2cc(OC)c3c(c2OC)OCO3)cc1 | 493 | 1130 | 345 | 301 | 412 | 218 | 1350 | 437 | 385 | 352 | 343 | 1420 | 356 | 4670 | 766 | 1780
